Measurements reported in patent US20220017572A1, “GEMINOID LIPOPEPTIDE COMPOUNDS AND THEIR USES” (Erasmus University Medical Center Rotterdam, priority 2016, published 2022).
Residues, ends and D or L forms follow the SMILES beside them.

How the values were obtained:
DENV-2/NGC = test: Dengue replication (plaque) assay in VERO cells; format: cell-based, Dengue virus
Description: 1×10^6 Vero E6 cells were plated per well into a 6-wells plate and incubated overnight at 37° C. Next day, the DENV-2/NGC virus stock was diluted to 10^4 TICD50/ml, 10^3 TICD50/ml, 10^2 TICD50/ml and 1 ml of the respective virus dilutions was added to each well. Wells contained approximately 80% confluent monolayers of Vero cells. After an incubation period of 1 hour at 37° C., cells were washed twice with medium (DMEM) and medium containing 2% methyl cellulose was added to the wells. To this medium C16-KAK-C16 10 uM was added (W) in DMSO, or an equivalent amount of DMSO (0.05%) was added (W/O). Plate was incubated at 37° C. for two days. Methyl cellulose overlays were removed and cells were fixed with absolute ethanol. Cells were subsequently incubated with specific DENY monoclonal antibody for 1 hour at 37° C., followed by incubation with HRPO-labeled rabbit-anti mouse conjugate. Positive plaques were counted after incubation with AEC substrate chromogen.
The experiment was performed as described in the legend of FIG. 8 at a viral dose of 10^3 TICD50/ml in all plates.
C16-KAK-C16 was subsequently tested in a standard Dengue replication (plaque) assay in VERO cells (FIG. 8). […] In a separate experiment this was confirmed with a constant intermediate viral load of and different concentrations of C16-KAK-C16 (FIG. 9)

[1] = molecular target: T1, Dengue NS3-NS2B peptidase (Dengue virus type 2, UniProt P14340); test: Dengue NS3-NS2B peptidase hydrolysis of Abz-AKRRSQ-EDDnp; format: biochemical; settings: 50 mM Tris-HCl pH 9.0, FIG. 5
T1 construct: The active site of the dengue protease is in the N-terminal part of NS3
Description: FIG. 5A, FIG. 5B and FIG. 5C show Dengue NS3-NS2B peptidase hydrolysis of Abz-AKRRSQ-EDDnp (SEQ ID NO:1) in 50 mM Tris-HCl pH 9.0. FIG. 5A Inhibitors: (◯) C16-KAAK-C16 (SEQ ID NO:42), (▪)C16-KAK-C16, (▴)C16-KGGK-C16(SEQ ID NO:41). FIG. 5B Substrates: (◯) Abz AKRRSQ-EDDnp (SEQ ID NO:1) and (●) Suc AAPF-MCA with different concentrations of C16-KGGK-C16 (SEQ ID NO:41). FIG. 5C Followed in time at different C16-KGGK-C16 (SEQ ID NO:41) concentrations.
FIG. 6A and FIG. 6B show Dengue NS3-NS2B peptidase hydrolysis of Abz AKRRSQ-EDDnp (SEQ ID NO:1) in the presence of C16-KK-C16 (KR), C16-KAK-C16 (KAK), C16-KAAK-C16 (KAAK; (SEQ ID NO:42)), C16-KAAAAK-C16 (KAAAAK; (SEQ ID NO:53)), C16-KGK-C16 (KOK), C16-KGGK-C16 (KOOK; (SEQ ID NO:41)), and C16-KGGGK-C16 (KGGGK; (SEQ ID NO:40)). “◯” means enzyme activity without inhibitor. FIG. 6A E+K means that the inhibitor+enzyme were pre-incubated for 0, 15 and 30 min and then the substrate was added. FIG. 6B K means that the inhibitor was pre-incubated for 0, 15 and 30 min and then the enzyme and substrate were added.
The best substrate for dengue protease is Abz-AKRR↓SQ-EDDnp (SEQ ID NO:1) [Gouvea et al., 2007]. […] Geminoids with either G or A are inhibitors of Dengue protease, but which is the better inhibitor does depend on the nature of the substrates (compare FIG. 5a and Table 1). […]

T1 sequence (P14340 1476-1653): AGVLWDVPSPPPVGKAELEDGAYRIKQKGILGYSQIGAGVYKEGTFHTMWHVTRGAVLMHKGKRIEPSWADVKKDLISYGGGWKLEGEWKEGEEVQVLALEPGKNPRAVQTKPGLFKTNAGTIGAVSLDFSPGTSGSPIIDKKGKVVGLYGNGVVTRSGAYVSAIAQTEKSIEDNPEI

| SMILES | inhibition of plaque formation (DENV-2/NGC; 10 uM, Vero E6 cells, DENV-2/NGC 10^2-10^4 TICD50/ml, two days, depending on the viral load) | virus replication (in words) (DENV-2/NGC; VERO cells, DENV-2/NGC) | inhibition of Dengue protease with substrate Abz-AKRRSQ-EDDnp (in words) [1] |
| --- | --- | --- | --- |
| CCCCCCCCCCCCCCCCNC(=O)[C@H](CCCCN)NC(=O)[C@H](C)NC(=O)[C@H](CCCCN)NC(=O)CCCCCCCCCCCCCCC [C16-KAK-C16] | up to 90% | significant reduction of virus replication | – |
| CCCCCCCCCCCCCCCCNC(=O)[C@H](CCCCN)NC(=O)CNC(=O)CNC(=O)[C@H](CCCCN)NC(=O)CCCCCCCCCCCCCCC [C16-KGGK-C16, C15H31CO-KGGK-NH—C16H33] (HELM PEPTIDE1{[CCCCCCCCCCCCCCCC(=O)[*:2]].K.G.G.K.[CCCCCCCCCCCCCCCCN[*:1]]}$$$$V2.0) | – | – | does not depend on the choice of substrate |
